Assay results: US6444850B1, “Fungicidial compounds having a fluorovinyloxphyenyl moiety and process for the preparation thereof” (priority 1997, dated 2002)

Tests used:
Botrytis cinerae = assay: Fungicidal activity against cucumber gray mold rot (CGM) disease; type: in vivo; settings: 50 ppm, control value
Erysiphae graminis = assay: Fungicidal activity against barley powdery mildew (BPM) disease; type: in vivo; settings: for C. V. (%), Fungicidal activities against TLB at 10 ppm: Table 9 (Test Example 6); for C. V. (%) BPM: 50 ppm, control value, barley powdery mildew
Puccinia recondita = assay: Fungicidal activity against wheat leaf rust (WLR) disease; type: in vivo; settings: for C. V. (%), Fungicidal Activities against WLB at 10 ppm: Table 8 (Test Example 5); for C. V. (%) WLR: 50 ppm, control value, wheat leaf rust
Rhizoctonia solani AG-1 = assay: Fungicidal activity against rice sheath blight (RSB) disease; settings: 50 ppm, control value
[1] = system: Pyricularia oryzae Carvara KA301; type: in vivo; settings: for C. V. (%) RCB: 50 ppm, control value, rice blast; for C. V. (%) Fungicidal Activities against RCB at 10 ppm / C. V. (%) Fungicidal Activities against RCB at 10 ppm (TABLE 6): sprayed on Nakdong rice plant, control value from lesion area
Phytophthora infestans = type: in vivo; settings: 50 ppm; control value, tomato late blight

COC=C(C(=O)OC)c1ccccc1COc1cccc(OC(F)=C(c2ccc3c(c2)OCO3)C(F)(F)F)c1 [Compound 81]
C. V. (%) CGM (Botrytis cinerae): 0%
C. V. (%), Fungicidal activities against TLB at 10 ppm (Erysiphae graminis): 100%
C. V. (%) BPM (Erysiphae graminis): 100%
C. V. (%), Fungicidal Activities against WLB at 10 ppm (Puccinia recondita): 100%
C. V. (%) WLR (Puccinia recondita): 100%
C. V. (%) RSB (Rhizoctonia solani AG-1): 65%
C. V. (%) RCB [1]: 86%
C. V. (%) TLB (Phytophthora infestans): 33%

CON=C(C(=O)OC)c1ccccc1COc1cccc(OC(F)=C(c2ccc3c(c2)OCO3)C(F)(F)F)c1 [Compound 82]
C. V. (%) CGM (Botrytis cinerae): 0%
C. V. (%), Fungicidal activities against TLB at 10 ppm (Erysiphae graminis): 97%
C. V. (%) BPM (Erysiphae graminis): 100%
C. V. (%), Fungicidal Activities against WLB at 10 ppm (Puccinia recondita): 96%
C. V. (%) WLR (Puccinia recondita): 98%
C. V. (%) RSB (Rhizoctonia solani AG-1): 45%
C. V. (%) RCB [1]: 50%
C. V. (%) TLB (Phytophthora infestans): 0%

COC=C(C(=O)OC)c1ccccc1COc1cccc(OC(F)=C(c2cccc(C(F)(F)F)c2)C(F)(F)F)c1 [Compound 83]
C. V. (%) CGM (Botrytis cinerae): 0%
C. V. (%), Fungicidal activities against TLB at 10 ppm (Erysiphae graminis): 100%
C. V. (%) BPM (Erysiphae graminis): 100%
C. V. (%), Fungicidal Activities against WLB at 10 ppm (Puccinia recondita): 94%
C. V. (%) WLR (Puccinia recondita): 100%
C. V. (%) RSB (Rhizoctonia solani AG-1): 50%
C. V. (%) RCB [1]: 25%
C. V. (%) TLB (Phytophthora infestans): 11%

COC=C(C(=O)OC)c1ccccc1COc1cccc(OC(F)=C(c2cccc(Cl)c2)C(F)(F)F)c1 [Compound 84]
C. V. (%) CGM (Botrytis cinerae): 16%
C. V. (%), Fungicidal activities against TLB at 10 ppm (Erysiphae graminis): 100%
C. V. (%) BPM (Erysiphae graminis): 100%
C. V. (%), Fungicidal Activities against WLB at 10 ppm (Puccinia recondita): 97%
C. V. (%) WLR (Puccinia recondita): 100%
C. V. (%) RSB (Rhizoctonia solani AG-1): 25%
C. V. (%) Fungicidal Activities against RCB at 10 ppm [1]: 95%
C. V. (%) Fungicidal Activities against RCB at 10 ppm (TABLE 6) [1]: 95%
C. V. (%) RCB [1]: 90%
C. V. (%) TLB (Phytophthora infestans): 81%

CNC(=O)C(=COC)c1ccccc1COc1cccc(OC(F)=C(c2cccc(Cl)c2)C(F)(F)F)c1 [Compound 85]
C. V. (%) CGM (Botrytis cinerae): 16%
C. V. (%) BPM (Erysiphae graminis): 0%
C. V. (%) WLR (Puccinia recondita): 73%
C. V. (%) RSB (Rhizoctonia solani AG-1): 10%
C. V. (%) RCB [1]: 16%
C. V. (%) TLB (Phytophthora infestans): 22%

CON=C(C(=O)OC)c1ccccc1COc1cccc(OC(F)=C(c2cccc(Cl)c2)C(F)(F)F)c1 [Compound 86]
C. V. (%) CGM (Botrytis cinerae): 27%
C. V. (%), Fungicidal activities against TLB at 10 ppm (Erysiphae graminis): 95%
C. V. (%) BPM (Erysiphae graminis): 100%
C. V. (%), Fungicidal Activities against WLB at 10 ppm (Puccinia recondita): 96%
C. V. (%) WLR (Puccinia recondita): 100%
C. V. (%) RSB (Rhizoctonia solani AG-1): 90%
C. V. (%) RCB [1]: 90%
C. V. (%) TLB (Phytophthora infestans): 22%

CNC(=O)C(=NOC)c1ccccc1COc1cccc(OC(F)=C(c2cccc(Cl)c2)C(F)(F)F)c1 [Compound 87]
C. V. (%) CGM (Botrytis cinerae): 0%
C. V. (%), Fungicidal activities against TLB at 10 ppm (Erysiphae graminis): 100%
C. V. (%) BPM (Erysiphae graminis): 100%
C. V. (%), Fungicidal Activities against WLB at 10 ppm (Puccinia recondita): 100%
C. V. (%) WLR (Puccinia recondita): 100%
C. V. (%) RSB (Rhizoctonia solani AG-1): 0%
C. V. (%) Fungicidal Activities against RCB at 10 ppm [1]: 100%
C. V. (%) Fungicidal Activities against RCB at 10 ppm (TABLE 6) [1]: 100%
C. V. (%) RCB [1]: 100%
C. V. (%) TLB (Phytophthora infestans): 0%

COC=C(C(=O)OC)c1ccccc1COc1cccc(OC(F)=C(c2ccc(Cl)cc2)C(F)(F)F)c1 [Compound 88]
C. V. (%) CGM (Botrytis cinerae): 25%
C. V. (%), Fungicidal activities against TLB at 10 ppm (Erysiphae graminis): 100%
C. V. (%) BPM (Erysiphae graminis): 100%
C. V. (%), Fungicidal Activities against WLB at 10 ppm (Puccinia recondita): 93%
C. V. (%) WLR (Puccinia recondita): 98%
C. V. (%) RSB (Rhizoctonia solani AG-1): 25%
C. V. (%) RCB [1]: 92%
C. V. (%) TLB (Phytophthora infestans): 31%

CNC(=O)C(=COC)c1ccccc1COc1cccc(OC(F)=C(c2ccc(Cl)cc2)C(F)(F)F)c1 [Compound 89]
C. V. (%) CGM (Botrytis cinerae): 22%
C. V. (%) BPM (Erysiphae graminis): 0%
C. V. (%) WLR (Puccinia recondita): 33%
C. V. (%) RSB (Rhizoctonia solani AG-1): 25%
C. V. (%) RCB [1]: 0%
C. V. (%) TLB (Phytophthora infestans): 33%

CON=C(C(=O)OC)c1ccccc1COc1cccc(OC(F)=C(c2ccc(Cl)cc2)C(F)(F)F)c1 [Compound 90]
C. V. (%) CGM (Botrytis cinerae): 25%
C. V. (%), Fungicidal activities against TLB at 10 ppm (Erysiphae graminis): 97%
C. V. (%) BPM (Erysiphae graminis): 99%
C. V. (%) WLR (Puccinia recondita): 100%
C. V. (%) RSB (Rhizoctonia solani AG-1): 30%
C. V. (%) Fungicidal Activities against RCB at 10 ppm [1]: 93%
C. V. (%) Fungicidal Activities against RCB at 10 ppm (TABLE 6) [1]: 93%
C. V. (%) RCB [1]: 90%
C. V. (%) TLB (Phytophthora infestans): 0%

CNC(=O)C(=NOC)c1ccccc1COc1cccc(OC(F)=C(c2ccc(Cl)cc2)C(F)(F)F)c1 [Compound 91]
C. V. (%) CGM (Botrytis cinerae): 17%
C. V. (%), Fungicidal activities against TLB at 10 ppm (Erysiphae graminis): 100%
C. V. (%) BPM (Erysiphae graminis): 100%
C. V. (%), Fungicidal Activities against WLB at 10 ppm (Puccinia recondita): 100%
C. V. (%) WLR (Puccinia recondita): 100%
C. V. (%) RSB (Rhizoctonia solani AG-1): 90%
C. V. (%) Fungicidal Activities against RCB at 10 ppm [1]: 99%
C. V. (%) Fungicidal Activities against RCB at 10 ppm (TABLE 6) [1]: 99%
C. V. (%) RCB [1]: 99%
C. V. (%) TLB (Phytophthora infestans): 64%

COC=C(C(=O)OC)c1ccccc1COc1cccc(OC(F)=C(c2cccc(F)c2)C(F)(F)F)c1 [Compound 92]
C. V. (%) CGM (Botrytis cinerae): 16%
C. V. (%), Fungicidal activities against TLB at 10 ppm (Erysiphae graminis): 99%
C. V. (%) BPM (Erysiphae graminis): 100%
C. V. (%), Fungicidal Activities against WLB at 10 ppm (Puccinia recondita): 100%
C. V. (%) WLR (Puccinia recondita): 100%
C. V. (%) RSB (Rhizoctonia solani AG-1): 55%
C. V. (%) RCB [1]: 93%
C. V. (%) TLB (Phytophthora infestans): 81%

CNC(=O)C(=COC)c1ccccc1COc1cccc(OC(F)=C(c2cccc(F)c2)C(F)(F)F)c1 [Compound 93]
C. V. (%) CGM (Botrytis cinerae): 0%
C. V. (%) BPM (Erysiphae graminis): 0%
C. V. (%) WLR (Puccinia recondita): 73%
C. V. (%) RSB (Rhizoctonia solani AG-1): 5%
C. V. (%) RCB [1]: 0%
C. V. (%) TLB (Phytophthora infestans): 0%

CON=C(C(=O)OC)c1ccccc1COc1cccc(OC(F)=C(c2cccc(F)c2)C(F)(F)F)c1 [Compound 94]
C. V. (%) CGM (Botrytis cinerae): 0%
C. V. (%), Fungicidal activities against TLB at 10 ppm (Erysiphae graminis): 99%
C. V. (%) BPM (Erysiphae graminis): 100%
C. V. (%), Fungicidal Activities against WLB at 10 ppm (Puccinia recondita): 95%
C. V. (%) WLR (Puccinia recondita): 100%
C. V. (%) RSB (Rhizoctonia solani AG-1): 60%
C. V. (%) RCB [1]: 41%
C. V. (%) TLB (Phytophthora infestans): 40%

CNC(=O)C(=NOC)c1ccccc1COc1cccc(OC(F)=C(c2cccc(F)c2)C(F)(F)F)c1 [Compound 95]
C. V. (%) CGM (Botrytis cinerae): 0%
C. V. (%), Fungicidal activities against TLB at 10 ppm (Erysiphae graminis): 100%
C. V. (%) BPM (Erysiphae graminis): 100%
C. V. (%), Fungicidal Activities against WLB at 10 ppm (Puccinia recondita): 100%
C. V. (%) WLR (Puccinia recondita): 100%
C. V. (%) RSB (Rhizoctonia solani AG-1): 72%
C. V. (%) Fungicidal Activities against RCB at 10 ppm [1]: 100%
C. V. (%) Fungicidal Activities against RCB at 10 ppm (TABLE 6) [1]: 100%
C. V. (%) RCB [1]: 100%
C. V. (%) TLB (Phytophthora infestans): 0%

COC=C(C(=O)OC)c1ccccc1COc1cccc(OC(F)=C(c2ccc(F)cc2)C(F)(F)F)c1 [Compound 96]
C. V. (%) CGM (Botrytis cinerae): 33%
C. V. (%), Fungicidal activities against TLB at 10 ppm (Erysiphae graminis): 100%
C. V. (%) BPM (Erysiphae graminis): 100%
C. V. (%), Fungicidal Activities against WLB at 10 ppm (Puccinia recondita): 97%
C. V. (%) WLR (Puccinia recondita): 100%
C. V. (%) RSB (Rhizoctonia solani AG-1): 67%
C. V. (%) Fungicidal Activities against RCB at 10 ppm [1]: 95%
C. V. (%) Fungicidal Activities against RCB at 10 ppm (TABLE 6) [1]: 95%
C. V. (%) RCB [1]: 90%
C. V. (%) TLB (Phytophthora infestans): 62%

CNC(=O)C(=COC)c1ccccc1COc1cccc(OC(F)=C(c2ccc(F)cc2)C(F)(F)F)c1 [Compound 97]
C. V. (%) CGM (Botrytis cinerae): 11%
C. V. (%) BPM (Erysiphae graminis): 33%
C. V. (%) WLR (Puccinia recondita): 83%
C. V. (%) RSB (Rhizoctonia solani AG-1): 10%
C. V. (%) RCB [1]: 0%
C. V. (%) TLB (Phytophthora infestans): 22%

CON=C(C(=O)OC)c1ccccc1COc1cccc(OC(F)=C(c2ccc(F)cc2)C(F)(F)F)c1 [Compound 98]
C. V. (%) CGM (Botrytis cinerae): 0%
C. V. (%), Fungicidal activities against TLB at 10 ppm (Erysiphae graminis): 98%
C. V. (%) BPM (Erysiphae graminis): 100%
C. V. (%), Fungicidal Activities against WLB at 10 ppm (Puccinia recondita): 96%
C. V. (%) WLR (Puccinia recondita): 100%
C. V. (%) RSB (Rhizoctonia solani AG-1): 65%
C. V. (%) RCB [1]: 33%
C. V. (%) TLB (Phytophthora infestans): 25%
